ChEMBL document CHEMBL5291721, “A preclinical secondary pharmacology resource illuminates target-adverse drug reaction associations of marketed drugs” (Nat Commun, 2023)

Key:
[1] = target: T1, B2 bradykinin receptor (Homo sapiens, UniProt P30411)
T1 sequence (P30411 whole entry): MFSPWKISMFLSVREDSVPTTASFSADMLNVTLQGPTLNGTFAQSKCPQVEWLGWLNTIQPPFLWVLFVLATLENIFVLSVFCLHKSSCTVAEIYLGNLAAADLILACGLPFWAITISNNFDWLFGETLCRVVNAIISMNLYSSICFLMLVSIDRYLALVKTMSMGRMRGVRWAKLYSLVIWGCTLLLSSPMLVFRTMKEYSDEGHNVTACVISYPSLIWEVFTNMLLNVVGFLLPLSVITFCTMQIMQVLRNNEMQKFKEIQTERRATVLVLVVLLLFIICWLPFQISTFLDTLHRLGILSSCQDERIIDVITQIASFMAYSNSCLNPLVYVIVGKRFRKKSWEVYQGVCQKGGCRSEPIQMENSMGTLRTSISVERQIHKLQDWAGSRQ

[2] = target: 5-hydroxytryptamine receptor 2A (Homo sapiens, UniProt P28223); format: functional, cell-based
Chain of 5-hydroxytryptamine receptor 2A (P28223 whole entry): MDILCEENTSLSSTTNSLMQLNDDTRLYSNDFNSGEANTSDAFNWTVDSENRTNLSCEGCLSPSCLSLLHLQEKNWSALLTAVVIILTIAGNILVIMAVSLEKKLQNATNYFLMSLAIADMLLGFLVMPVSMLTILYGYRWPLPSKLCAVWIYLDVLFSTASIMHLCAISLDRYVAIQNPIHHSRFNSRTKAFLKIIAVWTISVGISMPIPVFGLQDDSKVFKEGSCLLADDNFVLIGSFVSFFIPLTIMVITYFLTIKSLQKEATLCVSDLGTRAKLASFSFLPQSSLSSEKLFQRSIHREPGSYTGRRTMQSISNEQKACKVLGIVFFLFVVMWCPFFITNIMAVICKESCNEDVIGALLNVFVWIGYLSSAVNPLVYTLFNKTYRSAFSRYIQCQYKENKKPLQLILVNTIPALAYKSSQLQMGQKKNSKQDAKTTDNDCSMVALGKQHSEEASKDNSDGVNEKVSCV

[3] = target: Kappa-type opioid receptor (Homo sapiens, UniProt P41145)
Chain of Kappa-type opioid receptor (P41145 whole entry): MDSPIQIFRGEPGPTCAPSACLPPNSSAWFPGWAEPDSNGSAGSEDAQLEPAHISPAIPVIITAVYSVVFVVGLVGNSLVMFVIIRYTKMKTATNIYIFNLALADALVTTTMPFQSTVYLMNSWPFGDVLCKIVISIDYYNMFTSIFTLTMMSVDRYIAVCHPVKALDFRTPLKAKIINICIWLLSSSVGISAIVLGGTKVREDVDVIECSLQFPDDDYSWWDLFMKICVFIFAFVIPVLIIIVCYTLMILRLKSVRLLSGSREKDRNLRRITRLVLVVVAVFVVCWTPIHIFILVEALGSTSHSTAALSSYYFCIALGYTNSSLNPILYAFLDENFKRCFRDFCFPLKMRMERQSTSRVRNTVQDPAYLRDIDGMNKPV

[4] = target: Histamine H2 receptor (Homo sapiens, UniProt P25021)
Chain of Histamine H2 receptor (P25021 whole entry): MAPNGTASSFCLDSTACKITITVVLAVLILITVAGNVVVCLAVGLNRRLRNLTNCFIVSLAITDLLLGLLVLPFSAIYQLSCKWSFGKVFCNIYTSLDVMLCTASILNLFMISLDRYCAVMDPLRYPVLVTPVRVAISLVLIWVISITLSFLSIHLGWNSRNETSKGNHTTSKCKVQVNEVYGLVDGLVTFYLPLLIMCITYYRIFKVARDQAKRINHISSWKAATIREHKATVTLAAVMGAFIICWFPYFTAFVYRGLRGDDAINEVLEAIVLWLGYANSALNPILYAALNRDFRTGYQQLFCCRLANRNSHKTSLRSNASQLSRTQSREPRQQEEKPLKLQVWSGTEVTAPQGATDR

[5] = target: Melanocortin receptor 3 (Homo sapiens, UniProt P41968)
Chain of Melanocortin receptor 3 (P41968 whole entry): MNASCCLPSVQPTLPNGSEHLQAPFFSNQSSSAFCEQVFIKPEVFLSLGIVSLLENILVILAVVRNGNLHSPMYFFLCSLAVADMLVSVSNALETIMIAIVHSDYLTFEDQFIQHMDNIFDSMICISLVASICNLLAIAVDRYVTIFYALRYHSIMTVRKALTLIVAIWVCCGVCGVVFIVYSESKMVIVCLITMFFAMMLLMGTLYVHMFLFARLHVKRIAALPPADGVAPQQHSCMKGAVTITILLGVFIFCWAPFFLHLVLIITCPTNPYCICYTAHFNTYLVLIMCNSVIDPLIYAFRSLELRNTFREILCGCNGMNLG

[6] = target: Vasopressin V1a receptor (Homo sapiens, UniProt P37288)
Chain of Vasopressin V1a receptor (P37288 whole entry): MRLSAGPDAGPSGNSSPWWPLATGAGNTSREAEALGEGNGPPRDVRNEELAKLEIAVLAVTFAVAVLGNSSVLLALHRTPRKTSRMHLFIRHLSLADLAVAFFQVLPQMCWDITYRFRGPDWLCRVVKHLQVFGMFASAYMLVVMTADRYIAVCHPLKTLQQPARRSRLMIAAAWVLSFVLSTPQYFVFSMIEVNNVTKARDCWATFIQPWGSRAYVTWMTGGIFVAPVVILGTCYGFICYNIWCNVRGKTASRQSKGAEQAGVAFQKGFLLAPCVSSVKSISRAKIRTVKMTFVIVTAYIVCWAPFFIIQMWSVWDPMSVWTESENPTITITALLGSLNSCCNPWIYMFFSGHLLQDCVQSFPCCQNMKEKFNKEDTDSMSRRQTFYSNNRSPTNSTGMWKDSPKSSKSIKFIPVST

[7] = target: Cannabinoid receptor 1 (Homo sapiens, UniProt P21554)
Chain of Cannabinoid receptor 1 (P21554 whole entry): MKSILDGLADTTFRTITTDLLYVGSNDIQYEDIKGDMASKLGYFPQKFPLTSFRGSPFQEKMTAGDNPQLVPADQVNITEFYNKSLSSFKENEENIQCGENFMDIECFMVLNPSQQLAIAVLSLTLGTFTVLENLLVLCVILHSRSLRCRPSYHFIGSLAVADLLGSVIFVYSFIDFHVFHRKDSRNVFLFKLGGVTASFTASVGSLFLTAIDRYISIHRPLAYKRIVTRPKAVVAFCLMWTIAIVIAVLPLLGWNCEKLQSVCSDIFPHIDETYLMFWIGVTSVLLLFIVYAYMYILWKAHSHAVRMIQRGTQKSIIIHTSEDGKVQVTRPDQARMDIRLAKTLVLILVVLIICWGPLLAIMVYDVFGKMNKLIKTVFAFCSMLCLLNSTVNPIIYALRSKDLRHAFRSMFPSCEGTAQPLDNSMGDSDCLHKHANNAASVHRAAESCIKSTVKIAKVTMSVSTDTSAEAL

[8] = target: T2, 5-hydroxytryptamine receptor 1A (Homo sapiens, UniProt P08908); format: functional, cell-based
T2 sequence (P08908 whole entry): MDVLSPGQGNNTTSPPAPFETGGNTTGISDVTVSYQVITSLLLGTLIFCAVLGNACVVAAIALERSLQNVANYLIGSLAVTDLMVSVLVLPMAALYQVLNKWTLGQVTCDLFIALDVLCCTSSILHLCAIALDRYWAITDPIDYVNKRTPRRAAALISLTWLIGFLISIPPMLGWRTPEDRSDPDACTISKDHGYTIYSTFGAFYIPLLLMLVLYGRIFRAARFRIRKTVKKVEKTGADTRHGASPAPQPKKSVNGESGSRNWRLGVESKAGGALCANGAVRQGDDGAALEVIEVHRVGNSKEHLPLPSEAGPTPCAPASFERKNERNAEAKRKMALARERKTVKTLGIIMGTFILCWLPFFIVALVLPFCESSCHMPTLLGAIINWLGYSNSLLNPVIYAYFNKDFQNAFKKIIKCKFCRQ

[9] = target: T2, 5-hydroxytryptamine receptor 1A; format: functional, cell-based; remark: listed apart in the source
[10] = target: 3',5'-cyclic-AMP phosphodiesterase 4D (Homo sapiens, UniProt Q08499); format: functional
Chain of 3',5'-cyclic-AMP phosphodiesterase 4D (Q08499 whole entry): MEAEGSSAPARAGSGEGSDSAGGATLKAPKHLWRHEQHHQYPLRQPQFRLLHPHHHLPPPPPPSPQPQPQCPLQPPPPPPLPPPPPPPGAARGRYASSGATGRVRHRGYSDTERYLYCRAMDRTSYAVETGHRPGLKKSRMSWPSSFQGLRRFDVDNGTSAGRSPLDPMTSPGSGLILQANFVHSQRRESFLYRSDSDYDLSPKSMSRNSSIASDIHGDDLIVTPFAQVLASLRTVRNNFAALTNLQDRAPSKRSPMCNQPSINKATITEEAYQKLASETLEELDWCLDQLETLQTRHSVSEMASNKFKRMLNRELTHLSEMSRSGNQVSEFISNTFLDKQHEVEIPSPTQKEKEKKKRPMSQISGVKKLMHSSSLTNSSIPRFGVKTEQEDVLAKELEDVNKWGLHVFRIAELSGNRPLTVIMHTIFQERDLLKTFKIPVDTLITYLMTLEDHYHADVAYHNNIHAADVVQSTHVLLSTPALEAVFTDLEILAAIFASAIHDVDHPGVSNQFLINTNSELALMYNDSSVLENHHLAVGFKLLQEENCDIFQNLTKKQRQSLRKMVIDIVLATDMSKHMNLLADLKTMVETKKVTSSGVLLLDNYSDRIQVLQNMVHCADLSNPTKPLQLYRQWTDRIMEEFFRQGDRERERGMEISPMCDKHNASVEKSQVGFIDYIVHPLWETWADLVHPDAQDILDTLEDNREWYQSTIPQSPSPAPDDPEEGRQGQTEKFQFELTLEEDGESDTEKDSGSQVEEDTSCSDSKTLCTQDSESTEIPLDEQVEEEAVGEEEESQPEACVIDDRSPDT

[11] = target: Melanocortin receptor 4 (Homo sapiens, UniProt P32245)
Chain of Melanocortin receptor 4 (P32245 whole entry): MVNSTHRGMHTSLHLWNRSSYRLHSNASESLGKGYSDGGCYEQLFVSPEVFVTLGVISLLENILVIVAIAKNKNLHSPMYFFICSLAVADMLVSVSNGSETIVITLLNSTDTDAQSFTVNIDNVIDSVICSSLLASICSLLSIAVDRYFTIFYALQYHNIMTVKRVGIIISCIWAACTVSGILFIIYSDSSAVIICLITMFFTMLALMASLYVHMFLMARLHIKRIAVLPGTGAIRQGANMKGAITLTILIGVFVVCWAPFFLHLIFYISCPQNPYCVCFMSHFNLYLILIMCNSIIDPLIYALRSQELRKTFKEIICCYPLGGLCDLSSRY

[12] = target: T3, Gastric inhibitory polypeptide receptor (Homo sapiens, UniProt P48546)
T3 sequence (P48546 whole entry): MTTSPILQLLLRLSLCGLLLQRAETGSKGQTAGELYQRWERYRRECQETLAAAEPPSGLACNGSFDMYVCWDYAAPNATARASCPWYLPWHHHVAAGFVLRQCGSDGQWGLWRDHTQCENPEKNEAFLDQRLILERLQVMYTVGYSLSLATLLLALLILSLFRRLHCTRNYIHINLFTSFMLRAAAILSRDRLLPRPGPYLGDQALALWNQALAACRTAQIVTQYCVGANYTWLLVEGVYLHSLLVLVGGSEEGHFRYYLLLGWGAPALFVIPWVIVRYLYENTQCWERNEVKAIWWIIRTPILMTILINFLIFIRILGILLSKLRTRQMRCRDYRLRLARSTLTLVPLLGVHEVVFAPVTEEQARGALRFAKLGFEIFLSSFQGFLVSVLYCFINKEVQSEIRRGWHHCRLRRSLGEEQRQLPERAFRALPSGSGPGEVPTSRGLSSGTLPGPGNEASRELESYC

[13] = target: Beta-2 adrenergic receptor (Homo sapiens, UniProt P07550); format: functional, cell-based
Chain of Beta-2 adrenergic receptor (P07550 whole entry): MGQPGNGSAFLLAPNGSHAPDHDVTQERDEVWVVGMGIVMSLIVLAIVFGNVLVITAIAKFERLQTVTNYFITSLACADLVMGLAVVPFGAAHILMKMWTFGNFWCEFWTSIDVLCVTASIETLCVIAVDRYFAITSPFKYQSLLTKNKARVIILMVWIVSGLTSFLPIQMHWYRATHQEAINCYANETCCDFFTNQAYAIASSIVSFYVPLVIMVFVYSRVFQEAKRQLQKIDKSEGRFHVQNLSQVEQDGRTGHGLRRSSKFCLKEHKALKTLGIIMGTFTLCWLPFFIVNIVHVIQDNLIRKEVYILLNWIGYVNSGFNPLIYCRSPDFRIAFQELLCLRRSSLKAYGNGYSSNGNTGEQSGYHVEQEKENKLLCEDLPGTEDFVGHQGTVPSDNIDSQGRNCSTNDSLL

[14] = target: 5-hydroxytryptamine receptor 2B (Homo sapiens, UniProt P41595)
Chain of 5-hydroxytryptamine receptor 2B (P41595 whole entry): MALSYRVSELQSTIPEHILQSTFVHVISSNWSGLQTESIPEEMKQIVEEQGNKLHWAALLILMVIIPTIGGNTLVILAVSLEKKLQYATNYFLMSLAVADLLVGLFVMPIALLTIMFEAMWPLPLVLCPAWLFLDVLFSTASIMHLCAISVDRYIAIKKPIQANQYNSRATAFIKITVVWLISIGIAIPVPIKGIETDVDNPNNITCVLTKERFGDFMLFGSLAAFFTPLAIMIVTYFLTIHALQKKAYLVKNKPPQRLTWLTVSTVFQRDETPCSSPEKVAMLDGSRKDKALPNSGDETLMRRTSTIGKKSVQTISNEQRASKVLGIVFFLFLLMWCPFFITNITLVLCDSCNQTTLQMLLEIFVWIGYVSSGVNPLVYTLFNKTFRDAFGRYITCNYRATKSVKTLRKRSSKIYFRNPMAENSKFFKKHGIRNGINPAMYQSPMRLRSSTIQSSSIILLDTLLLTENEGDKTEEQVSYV
Note: assay procedure not described here.

| Structure (SMILES) | AC50 [1] | AC50 [2] | AC50 [3] | AC50 [4] | AC50 [5] | AC50 [6] | AC50 [7] | AC50 [8] | AC50 [9] | AC50 [10] | AC50 [11] | AC50 [12] | AC50 [13] | AC50 [14] |
| --- | --- | --- | --- | --- | --- | --- | --- | --- | --- | --- | --- | --- | --- | --- |
| Oc1cc(O)c2c(c1)O[C@H](c1ccc(O)c(O)c1)[C@@H](O)C2 [CIANIDANOL] | > 30 µM | > 30 µM | > 10 µM | > 10 µM | > 30 µM | > 30 µM | > 10 µM | > 10 µM | > 10 µM | > 30 µM | > 30 µM | > 30 µM | > 30 µM | > 10 µM |
| O=C1CN=C(c2ccccc2Cl)c2cc([N+](=O)[O-])ccc2N1 [CLONAZEPAM] | > 30 µM | – | > 10 µM | > 10 µM | > 30 µM | > 10 µM | > 10 µM | > 10 µM | > 10 µM | > 30 µM | > 30 µM | > 30 µM | > 30 µM | > 10 µM |
| CCN(CC)C(C)C(=O)c1ccccc1 (centres undefined) [DIETHYLPROPION] | > 30 µM | – | > 10 µM | > 10 µM | > 30 µM | > 30 µM | > 10 µM | > 10 µM | > 10 µM | > 30 µM | > 30 µM | > 30 µM | > 30 µM | > 10 µM |
| Cc1ccc(-c2ncc(Cl)cc2-c2ccc(S(C)(=O)=O)cc2)cn1 [ETORICOXIB] | > 30 µM | > 30 µM | > 10 µM | > 10 µM | > 10 µM | > 30 µM | > 10 µM | > 10 µM | > 10 µM | 9 µM | > 10 µM | > 30 µM | > 30 µM | > 10 µM |
